Test results as given in ChEMBL document CHEMBL5370557, “Structure-based discovery of IHMT-IDH1-053 as a potent irreversible IDH1 mutant selective inhibitor” (Eur J Med Chem, 2023).
Each block holds one compound with its values, some of them ahead of it. Calls of active or inactive are those of the source. No cut-off for these calls is given here.

Key:
[1] = biological target: T1, Isocitrate dehydrogenase [NADP] cytoplasmic (Homo sapiens, UniProt O75874, R132H); test: Inhibition of IDH1 R132H mutant (unknown origin) expressed in Escherichia coli BL21 (DE3) assessed as NADPH consumption using alpha-KG as substrate measured after 60 mins
[2] = biological target: T1, Isocitrate dehydrogenase [NADP] cytoplasmic; test: Inhibition of IDH1 R132H mutant (unknown origin) expressed in HEK293T cells assessed as inhibition of 2-HG generation measured after 48 hrs by LC-MS/MS analysis; format: cell-based
[3] = biological target: T1, Isocitrate dehydrogenase [NADP] cytoplasmic; test: Reversible binding affinity to IDH1 R132H mutant (unknown origin) expressed in Escherichia coli BL21 (DE3) assessed as inhibition constant
[4] = system: Isocitrate dehydrogenase [NADP] cytoplasmic (Homo sapiens), O75874 [R132H]; test: Binding affinity to IDH1 R132H mutant (unknown origin) expressed in Escherichia coli BL21 (DE3) assessed as inactivation constant
[5] = system: Isocitrate dehydrogenase [NADP] cytoplasmic (Homo sapiens), O75874 [R132H]; test: Binding affinity to IDH1 R132H mutant (unknown origin) expressed in Escherichia coli BL21 (DE3) assessed as ratio of Kinact/Ki
[6] = biological target: Isocitrate dehydrogenase [NADP] cytoplasmic (Homo sapiens, UniProt O75874); test: Inhibition of wild type IDH1 (unknown origin) expressed in Escherichia coli BL21 (DE3) assessed as NADPH consumption using alpha-KG as substrate measured after 60 mins
[7] = biological target: Isocitrate dehydrogenase [NADP] cytoplasmic (Homo sapiens, UniProt O75874, R132C); test: Inhibition of IDH1 R132C mutant (unknown origin) expressed in Escherichia coli BL21 (DE3) assessed as NADPH consumption using alpha-KG as substrate measured after 60 mins
[8] = biological target: T2, Isocitrate dehydrogenase [NADP], mitochondrial (Homo sapiens, UniProt P48735); test: Inhibition of wild type IDH2 (unknown origin) expressed in Escherichia coli BL21 (DE3) assessed as NADPH consumption using alpha-KG as substrate measured after 60 mins
T2 sequence (P48735 whole entry): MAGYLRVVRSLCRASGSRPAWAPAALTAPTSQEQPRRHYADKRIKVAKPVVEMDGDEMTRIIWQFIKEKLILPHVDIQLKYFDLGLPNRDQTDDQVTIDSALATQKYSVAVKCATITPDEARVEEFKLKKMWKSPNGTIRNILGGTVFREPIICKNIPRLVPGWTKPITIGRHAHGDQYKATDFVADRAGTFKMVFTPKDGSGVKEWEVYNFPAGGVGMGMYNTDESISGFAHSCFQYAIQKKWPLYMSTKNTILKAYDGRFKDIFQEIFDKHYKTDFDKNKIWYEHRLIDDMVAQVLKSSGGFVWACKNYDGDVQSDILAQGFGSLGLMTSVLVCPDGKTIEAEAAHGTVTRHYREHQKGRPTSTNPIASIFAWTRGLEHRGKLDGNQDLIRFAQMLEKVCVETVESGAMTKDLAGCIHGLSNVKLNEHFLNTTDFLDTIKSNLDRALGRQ

[9] = biological target: Isocitrate dehydrogenase [NADP], mitochondrial (Homo sapiens, UniProt P48735, R172K); test: Inhibition of IDH2 R172K mutant (unknown origin) expressed in Escherichia coli BL21 (DE3) assessed as NADPH consumption using alpha-KG as substrate measured after 60 mins
[10] = biological target: Isocitrate dehydrogenase [NADP], mitochondrial (Homo sapiens, UniProt P48735, R140Q); test: Inhibition of IDH2 R140Q mutant (unknown origin) expressed in Escherichia coli BL21 (DE3) assessed as NADPH consumption using alpha-KG as substrate measured after 60 mins
HT-1080 = test: Antiproliferative activity against human HT-1080 cells assessed as cell viability at 0.3 to 10 uM treated for 2 hrs followed by compound removal after 72 hrs by CellTiter-Glo assay; format: functional, cell-based; conditions: dose 0.3-10 µM
[11] = system: Acute myeloid leukemic cell; test: Antiproliferative activity against human primary AML cells expressing IDH1-R132 mutant assessed as cell viability at 0.3 to 10 uM treated for 2 hrs followed by compound removal after 72 hrs by CellTiter-Glo assay; format: functional, cell-based; conditions: dose 0.3-10 µM
[12] = Half life in Sprague-Dawley rat at 1 mg/kg, iv measured upto 24 hrs by LC-MS/MS analysis; format: ADME, organism-based; conditions: in vivo
[13] = Tmax in Sprague-Dawley rat at 1 mg/kg, iv measured upto 24 hrs by LC-MS/MS analysis; format: ADME, organism-based; conditions: in vivo
[14] = Cmax in Sprague-Dawley rat at 1 mg/kg, iv measured upto 24 hrs by LC-MS/MS analysis; format: ADME, organism-based; parameters: dose 1 mg/kg, time < 24 hrs, route iv; conditions: in vivo
[15] = AUC (0 to t) in Sprague-Dawley rat at 1 mg/kg, iv measured upto 24 hrs by LC-MS/MS analysis; format: ADME, organism-based; parameters: dose 1 mg/kg, time < 24 hrs, route iv; conditions: in vivo
[16] = Apparent volume of distribution in Sprague-Dawley rat at 1 mg/kg, iv measured upto 24 hrs by LC-MS/MS analysis; format: ADME, organism-based; conditions: in vivo, read-out: Vz
[17] = Half life in Sprague-Dawley rat at 10 mg/kg, po measured upto 24 hrs by LC-MS/MS analysis; format: ADME, organism-based; conditions: in vivo
[18] = Tmax in Sprague-Dawley rat at 10 mg/kg, po measured upto 24 hrs by LC-MS/MS analysis; format: ADME, organism-based; conditions: in vivo
[19] = Cmax in Sprague-Dawley rat at 10 mg/kg, po measured upto 24 hrs by LC-MS/MS analysis; format: ADME, organism-based; parameters: time < 24 hrs, dose 10 mg/kg, route po; conditions: in vivo
[20] = AUC (0 to t) in Sprague-Dawley rat at 10 mg/kg, po measured upto 24 hrs by LC-MS/MS analysis; format: ADME, organism-based; parameters: time < 24 hrs, dose 10 mg/kg, route po; conditions: in vivo
[21] = Apparent volume of distribution in Sprague-Dawley rat at 10 mg/kg, po measured upto 24 hrs by LC-MS/MS analysis; format: ADME, organism-based; conditions: in vivo
[22] = Clearance in Sprague-Dawley rat at 10 mg/kg, po measured upto 24 hrs by LC-MS/MS analysis; format: ADME, organism-based; conditions: in vivo
[23] = Oral bioavailability in Sprague-Dawley rat at 10 mg/kg measured upto 24 hrs by LC-MS/MS analysis; format: ADME, organism-based; conditions: in vivo
[24] = In vivo inhibition of IDH1 mutant activity in tumor of human HT-1080 cells xenografted in Balb/c mouse model assessed as reduction in 2-HG level at […], ip single administration measured upto 2 hrs relative to control; format: functional

T1 sequence (O75874 2-414 R132H limits assumed): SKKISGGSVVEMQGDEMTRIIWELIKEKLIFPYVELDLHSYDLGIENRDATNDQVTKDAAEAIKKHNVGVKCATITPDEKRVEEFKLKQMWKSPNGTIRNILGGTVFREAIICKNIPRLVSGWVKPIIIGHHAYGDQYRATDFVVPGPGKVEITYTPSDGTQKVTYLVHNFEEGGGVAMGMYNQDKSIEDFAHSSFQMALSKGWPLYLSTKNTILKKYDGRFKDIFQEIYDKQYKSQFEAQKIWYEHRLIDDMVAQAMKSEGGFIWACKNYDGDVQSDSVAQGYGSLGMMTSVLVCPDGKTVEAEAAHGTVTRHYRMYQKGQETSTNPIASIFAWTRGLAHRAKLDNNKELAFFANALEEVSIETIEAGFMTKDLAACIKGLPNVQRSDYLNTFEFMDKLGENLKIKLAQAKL
Sequence of Isocitrate dehydrogenase [NADP] cytoplasmic (Homo sapiens), O75874 [R132H] (O75874 whole entry R132H): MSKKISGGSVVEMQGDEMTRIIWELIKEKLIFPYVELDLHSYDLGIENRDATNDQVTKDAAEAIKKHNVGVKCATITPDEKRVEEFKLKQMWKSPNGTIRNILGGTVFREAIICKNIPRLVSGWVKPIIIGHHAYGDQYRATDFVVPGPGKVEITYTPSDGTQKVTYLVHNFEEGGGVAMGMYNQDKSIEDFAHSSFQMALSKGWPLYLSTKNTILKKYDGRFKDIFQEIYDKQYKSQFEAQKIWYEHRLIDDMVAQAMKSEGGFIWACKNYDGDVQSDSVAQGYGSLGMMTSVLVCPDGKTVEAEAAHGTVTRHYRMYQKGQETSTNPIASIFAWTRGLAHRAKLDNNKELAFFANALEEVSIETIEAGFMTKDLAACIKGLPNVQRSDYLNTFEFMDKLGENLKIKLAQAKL
Sequence of Isocitrate dehydrogenase [NADP], mitochondrial (Homo sapiens, UniProt P48735, R172K) (P48735 40-452 R172K limits assumed): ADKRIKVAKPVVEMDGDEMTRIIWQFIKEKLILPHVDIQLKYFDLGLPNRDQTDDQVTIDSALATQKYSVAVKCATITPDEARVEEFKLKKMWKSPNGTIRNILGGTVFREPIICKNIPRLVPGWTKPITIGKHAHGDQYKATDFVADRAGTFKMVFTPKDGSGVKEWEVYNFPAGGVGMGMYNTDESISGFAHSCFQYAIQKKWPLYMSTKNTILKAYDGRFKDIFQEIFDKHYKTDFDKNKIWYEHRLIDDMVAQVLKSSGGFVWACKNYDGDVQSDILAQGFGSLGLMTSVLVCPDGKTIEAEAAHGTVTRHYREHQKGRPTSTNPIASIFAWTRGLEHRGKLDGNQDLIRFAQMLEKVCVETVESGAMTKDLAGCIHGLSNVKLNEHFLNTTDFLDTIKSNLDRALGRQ
Sequence of Isocitrate dehydrogenase [NADP] cytoplasmic (Homo sapiens, UniProt O75874) (O75874 whole entry): as the sequence (O75874 whole entry R132H) above, with H132R counted along it
Sequence of Isocitrate dehydrogenase [NADP] cytoplasmic (Homo sapiens, UniProt O75874, R132C) (O75874 2-414 R132C limits assumed): as the sequence (O75874 2-414 R132H limits assumed) above, with H131C counted along it
Sequence of Isocitrate dehydrogenase [NADP], mitochondrial (Homo sapiens, UniProt P48735, R140Q) (P48735 40-452 R140Q limits assumed): as the sequence (P48735 40-452 R172K limits assumed) above, with R101Q, K133R counted along it

IC50 [1]: 42 nM
IC50 [2]: 129 nM
Compound: C=CS(=O)(=O)N1CCC(Nc2ccc([C@H](C)Nc3ncc(F)c(N4C(=O)OC[C@@H]4C(C)C)n3)cc2)CC1

IC50 [1]: 741 nM
Compound: CCC(=O)Nc1cc(-c2ccc([C@H](C)Nc3ncc(F)c(N4C(=O)OC[C@@H]4C(C)C)n3)cc2)ccc1N(C)C

IC50 [1]: 541 nM
Compound: CCS(=O)(=O)NC1CCN(c2ccc([C@H](C)Nc3nccc(N4C(=O)OC[C@@H]4C(C)C)n3)cc2)CC1

IC50 [1]: 4.7 nM
IC50 [2]: 28 nM
Ki [3]: 37 nM
Kinact [4]: 0.015 min⁻¹
Ratio [5]: 0.007 µM⁻¹ s⁻¹
IC50 [6]: > 10000 nM
IC50 [7]: 139 nM
IC50 [8]: > 10000 nM
IC50 [9]: > 10000 nM
IC50 [10]: > 10000 nM
t1/2 [12]: 9.6 min
Tmax [13]: 1.8 min
Cmax [14]: 199.67 ng/mL
AUCt [15]: 267.61 ng·h/mL
Vd [16]: 5.39 L/kg
half-life [17]: 18 min
Tmax [18]: 15 min
Cmax [19]: 88.1 ng/mL
AUCt [20]: 36.31 ng·h/mL
Vz [21]: 118.878 L/kg
CL/F [22]: 260 L/h/kg
F [23]: 9.26%
Compound: C=CS(=O)(=O)NC1CCN(c2ccc([C@H](C)Nc3ncc(F)c(N4C(=O)OC[C@@H]4C(C)C)n3)cc2)CC1
Activity (HT-1080): Active
Activity [11]: Active
inhibition (INH) [24]: >85%

IC50 [1]: 440 nM
IC50 [2]: 295 nM
Compound: C=CC(=O)NC1CCCN(c2ccc([C@H](C)Nc3ncc(F)c(N4C(=O)OC[C@@H]4C(C)C)n3)cc2)C1 (some centres not stated)

IC50 [1]: 547 nM
Compound: C=CS(=O)(=O)Nc1ccc(Nc2ccc([C@H](C)Nc3nccc(N4C(=O)OC[C@@H]4C(C)C)n3)cc2)cc1N1CCN(CC)CC1

IC50 [1]: 143 nM
IC50 [2]: 1470 nM
Compound: CCS(=O)(=O)NC1CCN(c2ccc([C@H](C)Nc3ncc(F)c(N4C(=O)OC[C@@H]4C(C)C)n3)cc2)CC1

IC50 [1]: 932 nM
Compound: CCC(=O)Nc1cc(Nc2ccc([C@H](C)Nc3ncc(F)c(N4C(=O)OC[C@@H]4C(C)C)n3)cc2)ccc1N(C)C

IC50 [1]: 155 nM
IC50 [2]: 114 nM
Compound: C=CC(=O)Nc1cc(Nc2ccc([C@H](C)Nc3ncc(F)c(N4C(=O)OC[C@@H]4C(C)C)n3)cc2)ccc1N(C)C

IC50 [1]: 87 nM
Compound: CC(C)[C@H]1COC(=O)N1c1nc(N[C@@H](C)c2ccc(N3CCC(NC(=O)CCl)CC3)cc2)ncc1F

IC50 [1]: 898 nM
Compound: C=CC(=O)Nc1ccc(Nc2ccc([C@H](C)Nc3nccc(N4C(=O)OC[C@@H]4C(C)C)n3)cc2)cc1N1CCN(CC)CC1

IC50 [1]: 87 nM
IC50 [2]: 1500 nM
Compound: C=CS(=O)(=O)Nc1ccc(Nc2ccc([C@H](C)Nc3ncc(F)c(N4C(=O)OC[C@@H]4C(C)C)n3)cc2)cc1N1CCOCC1

IC50 [1]: 6130 nM
Compound: C=CC(=O)Nc1ccc(Nc2ccc([C@H](C)Nc3ccc(C#N)cn3)cc2)cc1N(C)C

IC50 [1]: 670 nM
Compound: CCC(=O)NC1CCCN(c2ccc([C@H](C)Nc3ncc(F)c(N4C(=O)OC[C@@H]4C(C)C)n3)cc2)C1 (some centres not stated)

IC50 [1]: 630 nM
Compound: C=CC(=O)Nc1cc(-c2ccc([C@H](C)Nc3ncc(F)c(N4C(=O)OC[C@@H]4C(C)C)n3)cc2)ccc1N(C)C

IC50 [1]: > 10000 nM
IC50 [2]: 10000 nM
Compound: CCC(=O)Nc1ccc(Nc2ccc([C@H](C)Nc3ncc(F)c(N4C(=O)OC[C@@H]4C(C)C)n3)cc2)cc1N1CCOCC1

IC50 [1]: 4490 nM
Compound: C=CS(=O)(=O)NC1CCN(c2ccc([C@H](C)Nc3ncc(C#N)cn3)cc2)CC1

IC50 [1]: 6320 nM
Compound: C=CS(=O)(=O)Nc1ccc(Nc2ccc([C@H](C)Nc3ccc(C#N)cn3)cc2)cc1N(C)C

IC50 [1]: 88 nM
IC50 [2]: 866 nM
Compound: C=CS(=O)(=O)Nc1ccc(Nc2ccc([C@H](C)Nc3ncc(F)c(N4C(=O)OC[C@@H]4C(C)C)n3)cc2)cc1C

IC50 [1]: 976 nM
IC50 [2]: 331 nM
Compound: C=CC(=O)Nc1ccc(Nc2ccc([C@H](C)Nc3ncc(F)c(N4C(=O)OC[C@@H]4C(C)C)n3)cc2)cc1N1CCOCC1
